Reference: patent US10251845B2, “Fatty acid cysteamine conjugates and their use as activators of autophagy” (Catabasis Pharmaceuticals, Inc., priority 2014, dated 2019)

Legend:
[1] = test system: LC3-II/LC3-I; experiment: LC3 immunoblotting in HT-29 cells (autophagy); type: cell-based; conditions: 24 hours
Protocol: The test compound was first solubilized in 100% DMSO as a 50 mM solution, and then diluted 1 to 100 in FBS as a 10× stock solution of 500 μM.
Huh-7 cells were seeded in 10% FBS DMEM overnight. The cells media were replaced with drug diluted 1 to 10 in DMEM (final concentration 50 μm in 10% FBS DMEM). Four hours after the drug addition, cells were lysed in RIPA buffer. Cell lysates were analyzed by immunoblotting with anti-LC3A/B antibodies (Cell signaling 12741). Data were presented as LC3-II/LC3-I ratio compared to vehicle treated samples.
As noted in Levine and Kroemer (2008) CELL, 132, p. […] The same incubation experiment was carried out in HT-29 cells with compound II-3. […] FIG. 2E summarizes the results when HT-29 cells were incubated with 50 μM of compounds IV-11 and IV-12.
This same synergy experiment was repeated with compound II-3 using HT-29 cells. In this experiment, HT-29 cells were incubated for 24 hours with each of the following treatment groups: 1) vehicle control group; 2) cystamine (25 μM); 3) DHA (25 μM); 4) a combination of cystamine (25 μM) and DHA; 5) cystamine (250 μM); 6) DHA (250 μM); 7) a combination of cystamine (250 μM) and DHA (250 μM); 8) compound II-3 (25 μM). The result shown represented the average of three separate measurements. […] This degree of activation of autophagy was not achieved with any of the following treatment groups: 1) vehicle control group; 2) cystamine (25 μM); 3) DHA (25 μM); 4) a combination of cystamine (25 μM) and DHA; 5) cystamine (250 μM); 6) DHA (250 μM); 7) a combination of cystamine (250 μM) and DHA (250 μM).

[2] = test system: Pseudomona aeruginosa strain Xen05; experiment: In vitro bacterial clearance assay using human bronchial epithelial cells (16HBE); type: cell-based; conditions: 16HBE cells, 25 μM
Protocol: In this assay, normal 16HBE cells were cultured and seeded at 2×10^5 cells per well using a 48-well plate. The resulting plates were incubated at 37° C. with 5% CO2 until 90% confluency. Cells were then treated with compound II-3 for 24 hours and then infected with Pseudomona aeruginosa strain Xen05 at a multiplicity of infection (MOI) of 1:50 (i.e. ratio of cells:bacteria) for 2 hours. Cells were then incubated with 500 μL of a mixture consisting non-permeable antibiotic (50 U/mL each of penicillin and streptomycin, mixed with 200 μg/mL gentamicin) for 3 hours to remove the extracellular bacteria. Afterwards, cells were lysed and a bacteria count was carried out to determine the remaining intracellular bacteria load.

[3] = test system: LC3-II/LC3-I; experiment: In vivo autophagy activation in mouse lung tissues; conditions: mice, 100 mg/kg po BID 3.5 days; p=0.04
Protocol: In order to evaluate for in vivo autophagy activation, nave male C57BL/6 mice were dosed orally with compound II-3 (100 mg/kg, BID, 3.5 days). One hour after the last dose, lung tissues and plasma were collected to analyze for drug concentration and autophagy biomarkers. As discussed in earlier examples, the ratio of LC3-II to LC3-I was used as autophagy biomarker. When compound II-3 was dosed orally, the parent compound (i.e. II-3) and a major metabolite (i.e. compound I-1) was detected both in the plasma and lung tissues. One hour after the last dose, the plasma concentration of the parent compound II-3 was 143.0±52.35 ng/mL and the corresponding metabolite I-1 was 741.37±170.2 ng/mL. At this time point, the mouse lung tissue concentration of the parent compound II-3 was 536.48±24.01 ng/g. The metabolite I-1 was also detected in the lung tissues, at a concentration of 411.48±164.0 ng/g. Compound II-3 was able to induce autophagy at the given dose of 100 mg/kg and the 22% increase in the ratio of LC3-II to LC3-I in the isolated lung tissues was statistically significant (p=0.04, FIG. 12).

[4] = test system: CCL2; experiment: RT-PCR of CCL2 mRNA in LPS-stimulated THP-1 cells; type: cell-based; conditions: 25 μM, LPS stimulation
Protocol: THP-1 cells were obtained from ATCC® TIB202. THP-1 cells were maintained in RPMI1640 (Gibco® RPMI 1640) supplemented with 10% fetal bovine serum. DMEM (#11095) and fetal bovine serum (low endotoxin grade) (#10437) was obtained from Invitrogen.
Compounds II-3 and I-1 were first solubilized in 100% DMSO as 50 mM solution, and then diluted 1 to 200 in 1% BSA as a 10× stock solution of […], and series stock dilution (1 to 2 dilution) were carried out as needed. The 10× stock solution were added to the cell media and cells were incubated for 24 hours at 37° C. For LPS stimulation in THP-1 cells, compounds were added to the cell media for 6 hours at and at the end of 4 hours, 50 μg/ml final concentration of LPS (Sigma L3024) was added and cells were incubated for 2 hours. […] The total RNA was harvested, and the relative mRNA expression levels were assessed via RT-PCR with HPRT as the internal control. […] Significance was determined by student's t-test in comparison to control.
Total RNA was collected using RNeasy Plus Mini Kit (Qiagen #74136) and cDNA generated using SuperScriptIII (Invitrogen #18080-044) with random hexamers following the manufacturer's protocol. Relative mRNA expression levels were determined using TaqMan probes (Applied Biosystems, using the recommended best primer pairs) with HPRT (hypoxanthine phosphoryltransferase) as the internal control. […]

CC/C=C\C/C=C\C/C=C\C/C=C\C/C=C\C/C=C\CCC(=O)NCCSSC(C)(C)CNC(=O)c1cccnc1 [II-3, N-(2-((2-((4Z,7Z,10Z,13Z,16Z,19Z)-docosa-4,7,10,13,16,19-hexaenamido)ethyl)disulfanyl)-2-methylpropyl)nicotinamide]
activation of autophagy (ratio of LC3-II to LC3-I) ([1]; HT-29, 25 μM): synergistic and higher degree of activation of autophagy
ratio of LC3-II to LC3-I compared to vehicle control ([1]; HT-29 cells, 50 μM): increase
intracellular bacterial killing effect relative to positive control Cytochalasin-D [2]: comparable
intracellular clearance of Pseudomona aeruginosa ([2]; 24 hours pre-treatment): effective intracellular clearance
increase in the ratio of LC3-II to LC3-I in the isolated lung tissues [3]: 22%
CCL2 mRNA level [4]: marked reduction
